From patent EP2961395B1, “TARGETED NANOPARTICLES” (CALIFORNIA INSTITUTE OF TECHNOLOGY, priority 2013, dated 2014)
Where two headings read alike, the source gives them in different places. Blank lines part the entries; values can stand above or below the molecule they belong to.

Assays:
[1] = tested on: MCF-7; assay: Cytotoxicity assay (CellTiter 96 AQueous One) in MCF-7; assay type: cell-based; details: Homo sapiens, MCF7; MCF-7 (HER2 -); 72 h; CPT-containing items based on CPT content
Text: (§1) Wells containing untreated cells were used as controls.

[2] = tested on: BT-474; assay: Cytotoxicity assay (CellTiter 96 AQueous One) in BT-474; assay type: cell-based; details: Homo sapiens; BT-474 (HER2 +); 72 h; CPT-containing items based on CPT content
Text: as §1

[3] = Plasma pharmacokinetics of free CPT in CD2F1 mice (comparison)
Experimental: A DNA ladder is loaded in Lane 1. […] A DNA ladder is loaded in Lane 1. […] Free CPT injected at 10 mg/kg into CD2F1 mice is shown as comparison. (A) Plasma concentration of polymer bound CPT as a function of time. […] (A) Percent injected dose (ID) of total CPT per gram of tumor, heart, liver, spleen, kidney or lung. (B) Percentage of total CPT in each organ that is unconjugated in tumor, heart, liver, spleen, kidney and lung. (C) Total concentration of CPT in plasma.

[4] = tested on: SKBR-3; assay: Cytotoxicity assay (CellTiter 96 AQueous One) in SKBR-3; assay type: cell-based; details: Homo sapiens, SK-BR-3; SKBR-3 (HER2 +); 72 h; CPT-containing items based on CPT content
Text: as §1

[5] = tested on: BT-474 xenograft tumors
Experimental: Treatments began on day 1. […] All treatments were freshly prepared and given via intravenous tail vein injection. Injections were standardized at 150 µl per 20 g body weight of mice. […] Tumor sizes were recorded three times a week using caliper measurements (length x width^2/2) and health of the animals was continuously monitored. Animals were euthanized when tumor volumes exceeded 1000 mm^3. Six weeks after beginning of the treatment, animals were euthanized by CO2 asphyxiation.

[6] = tested on: MDA-MB-231; assay: Cytotoxicity assay (CellTiter 96 AQueous One) in MDA-MB-231; assay type: cell-based; details: Homo sapiens; MDA-MB-231 (HER2 -); 72 h; CPT-containing items based on CPT content
Text: as §1

[7] = pKa determination by absorbance change on titration; assay type: physicochemical; details: 10^-3 M PBA in 0.1 M PBS, titrated with 1 N NaOH, absorbance at 268 nm
Experimental: The pKa of the synthesized PBA compounds were found by measuring the change in absorbance of PBA as it converted from trigonal (in low pH) to tetrahedral (in high pH) conformation. To a solution of 10^-3 M PBA in 0.1 M PBS, pH 7.4 was titrated 1 N NaOH. pH was recorded and corresponding samples were removed for absorbance measurements at 268 nm. Table 2. pKa and binding constants of PBA compounds
pKa values of the modified PBAs were determined by absorbance changes due to conformational change of PBA from trigonal to tetrahedral form as the pH was increased (Table 2). […] Thus, at physiological pH, most of the PBA was present in the reactive anionic tetrahedral form. Binding constants between PBA and MAP were found by competitive binding with Alizarin Red S in 0.1 M PBS, pH 7.4.

[8] = 8 mg/kg (MAP-CPT on CPT basis) i.v. once per week for 3 weeks
[9] = 80 mg/kg i.v. once per week for 3 weeks

Structure (SMILES): CC[C@@]1(O)C(=O)OCc2c1cc1n(c2=O)Cc2cc3ccccc3nc2-1 [CPT, Camptothecin]
- IC50 [1]: 300 nM
- IC50 [2]: 4 µM
- AUC ([3]; CD2F1, mouse, in vivo, 10 mg/kg): 1600 ng·h/mL
- injected dose remaining in circulation ([3]; after 8 h, CPT alone at 10 mg/kg): 0.01%
- IC50 [4]: 30 nM
- Mean tumor volume [5, 8]: 808 mm^3
- Median tumor volume [5, 8]: 417 mm^3
- NTRD (number of treatment related death) [5, 8]: 4
- Nend (number of animals surviving to end of study) [5, 8]: 8/0
- Neuthan (number of animals euthanized due to exceeding tumor size limit of 1000 mm^3) [5, 8]: 4
- Nreg to zero (number of animals with tumors regressed to zero at the end of study) [5, 8]: 0
- tumor inhibition compared to control group [5, 8]: no tumor inhibition
- IC50 [6]: 100 nM

Structure (SMILES): CCc1c2c(nc3ccc(OC(=O)N4CCC(N5CCCCC5)CC4)cc13)-c1cc3c(c(=O)n1C2)COC(=O)[C@]3(O)CC [Irinotecan]
- NTRD (number of treatment related death) [5, 9]: 1
- Nend (number of animals surviving to end of study) [5, 9]: 8/7
- Neuthan (number of animals euthanized due to exceeding tumor size limit of 1000 mm^3) [5, 9]: 0
- Nreg to zero (number of animals with tumors regressed to zero at the end of study) [5, 9]: 0
- tumor inhibition compared to control group [5, 9]: non-significant tumor inhibition

- pKa [7]: 8.8
Structure (SMILES): OB(O)c1ccccc1 [PBA, phenylboronic acid]
